Laboratory results published in US20110182850A1, “ORGANIC COMPOUNDS AND THEIR USES” (priority 2009, published 2011).

Target: T1, HCV NS3-4A serine protease (full-length NS3-4A protein, genotype 1a, strain HCV-1) (Hepatitis C virus genotype 1a, UniProt P26664)
T1 construct: using the full-length NS3-4A protein (genotype 1a, strain HCV-1)
Assay: HCV NS3-4A protease assay
Format: biochemical
Details: Protease IC50
Procedure: The inhibitory activity of certain compounds of Table A against HCV NS3-4A serine protease is determined in a homogenous assay using the full-length NS3-4A protein (genotype 1a, strain HCV-1) and a commercially available internally-quenched fluorogenic peptide substrate as described by Taliani, M., et al. 1996 Anal. Biochem. 240:60-67, which is incorporated by reference in its entirety.

T1 sequence (P26664 1658-1711): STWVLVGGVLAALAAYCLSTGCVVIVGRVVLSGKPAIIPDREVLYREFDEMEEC
T1 sequence (P26664 1027-1657): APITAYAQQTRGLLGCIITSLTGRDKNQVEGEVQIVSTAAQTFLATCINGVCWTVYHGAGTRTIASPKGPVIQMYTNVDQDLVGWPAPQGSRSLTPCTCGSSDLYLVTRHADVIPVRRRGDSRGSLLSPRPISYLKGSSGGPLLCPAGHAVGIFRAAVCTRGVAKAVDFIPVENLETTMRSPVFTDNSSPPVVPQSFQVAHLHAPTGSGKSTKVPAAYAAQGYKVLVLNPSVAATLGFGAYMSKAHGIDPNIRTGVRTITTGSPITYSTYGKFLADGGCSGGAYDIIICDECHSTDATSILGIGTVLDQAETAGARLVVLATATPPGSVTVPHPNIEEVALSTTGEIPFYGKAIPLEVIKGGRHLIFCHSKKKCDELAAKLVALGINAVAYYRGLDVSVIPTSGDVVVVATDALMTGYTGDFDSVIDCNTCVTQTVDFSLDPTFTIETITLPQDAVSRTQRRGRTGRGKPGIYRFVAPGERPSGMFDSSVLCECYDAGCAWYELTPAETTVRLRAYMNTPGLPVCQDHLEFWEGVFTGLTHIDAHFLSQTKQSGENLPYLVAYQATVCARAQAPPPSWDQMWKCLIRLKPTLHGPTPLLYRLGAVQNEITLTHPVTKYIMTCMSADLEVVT

Compound	IC50 [nM]
C=C[C@@H]1C[C@]1(NC(=O)[C@@H]1C[C@@]2(CN1C(=O)[C@@H](NC(=O)C(NC(=O)c1cc(C(C)(C)C)nn1C)C1CCCCC1)C(C)(C)C)C(C)(C)C21CCC1)C(=O)NS(=O)(=O)C1CC1 (stereo partly drawn) [Compound 126, (5R,8S)-7-[(2S)-2-{[{[(3-tert-butyl-1-methyl-1H-pyrazol-5-yl)carbonyl]amino}(cyclohex-yl)acetyl]amino}-3,3-dimethylbutanoyl]-N-{(1R,2S)-1-[(cyclopropylsulfonyl)carba-moyl]-2-vinylcyclopropyl}-10,10-dimethyl-7-azadispiro[3.0.4.1]decane-8-carboxamide]	8
C=C[C@@H]1C[C@]1(NC(=O)[C@@H]1C[C@@]2(CN1C(=O)[C@@H](NC(=O)C(NC(=O)c1nccc3ccccc13)C1CCCCC1)C(C)(C)C)C(C)(C)C21CCC1)C(=O)NS(=O)(=O)C1CC1 (stereo partly drawn) [Compound 127, (5R,8S)-7-[(2S)-2-({cyclohexyl[(isoquinolin-1-ylcarbonyl)amino]acetyl}amino)-3,3-dimethylbutanoyl]-N-{(1R,2S)-1-[(cyclopropylsulfonyl)carba-moyl]-2-vinylcyclopropyl}-10,10-dimethyl-7-azadispiro[3.0.4.1]decane-8-carboxamide]	8
C=C[C@H]1C[C@@]1(NC(=O)[C@@H]1C[C@@]2(CN1C(=O)[C@@H](NC(=O)[C@@H](NC(=O)c1ccccc1N(C)C)C(C)(C)C)C(C)(C)C)C(C)(C)C21CCC1)C(=O)NS(=O)(=O)C1CC1 [Compound 130, (5R,8S)-N-{(1S,2R)-1-[(cyclopropylsulfonyl)carba-moyl]-2-vinylcyclopropyl}-7-[(2S)-2-{[(2S)-2-{[2-(dimethylamino)benzoyl]amino}-3,3-dimethylbutanoyl]amino}-3,3-dimethylbutanoyl]-10,10-dimethyl-7-azadispiro[3.0.4.1]decane-8-carboxamide]	5.5
C=C[C@@H]1C[C@]1(NC(=O)[C@@H]1C[C@@]2(CN1C(=O)[C@@H](NC(=O)[C@@H](NC(=O)[C@@H]1CCN1C(C)C)C(C)(C)C)C(C)(C)C)C(C)(C)C21CCC1)C(=O)NS(=O)(=O)C1CC1 [Compound 131, (5R,8S)-N-{(1R,2S)-1-[(cyclopropylsulfonyl)carba-moyl]-2-vinylcyclopropyl}-7-[(2S)-2-{[(2S)-2-({[(2S)-1-isopropylazetidin-2-yl]carbonyl}amino)-3,3-dimethylbutanoyl]amino}-3,3-dimethylbutanoyl]-10,10-dimethyl-7-azadispiro[3.0.4.1]decane-8-carboxamide]	0.8
C=C1CC(NC(=O)[C@@H]2C[C@@]3(CN2C(=O)[C@@H](NC(=O)[C@@H](NC(=O)[C@@H]2CCCCN2C(C)C)C(C)(C)C)C(C)(C)C)C(C)(C)C32CCC2)(C(=O)NS(=O)(=O)C2CC2)C1 [Compound 132, (5R,8S)-N-{1-[(cyclopropylsulfonyl)carba-moyl]-3-methylenecyclobutyl}-7-[(2S)-2-{[(2S)-2-({[(2S)-1-isopropylpiperidin-2-yl]carbonyl}amino)-3,3-dimethylbutanoyl]amino}-3,3-dimethylbutanoyl]-10,10-dimethyl-7-azadispiro[3.0.4.1]decane-8-carboxamide]	1300
CC(C)N1CCCC[C@H]1C(=O)N[C@H](C(=O)N[C@H](C(=O)N1C[C@]2(C[C@H]1C(=O)NC1(C(=O)NS(=O)(=O)C3CC3)CCC1)C(C)(C)C21CCC1)C(C)(C)C)C(C)(C)C [Compound 133, (5R,8S)-N-{1-[(cyclopropylsulfonyl)carba-moyl]cyclobutyl}-7-[(2S)-2-{[(2S)-2-({[(2S)-1-isopropylpiperidin-2-yl]carbonyl}amino)-3,3-dimethylbutanoyl]amino}-3,3-dimethylbutanoyl]-10,10-dimethyl-7-azadispiro[3.0.4.1]decane-8-carboxamide]	450
CC[C@@H]1C[C@]1(NC(=O)[C@@H]1C[C@@]2(CN1C(=O)[C@@H](NC(=O)[C@@H](NC(=O)c1cnccn1)C(C)(C)C)C(C)(C)C)C(C)(C)C21CCC1)C(=O)NS(=O)(=O)C1CC1 [Compound 134, (5R,8S)-N-{(1R,2R)-1-[(cyclopropylsulfonyl)carba-moyl]-2-ethylcyclopropyl}-7-[(2S)-2-({(2S)-3,3-dimethyl-2-[(pyrazin-2-ylcarbonyl)amino]butanoyl}amino)-3,3-dimethylbutanoyl]-10,10-dimethyl-7-azadispiro[3.0.4.1]decane-8-carboxamide]	40
C=C[C@@H]1C[C@]1(NC(=O)[C@@H]1C[C@@]2(CN1C(=O)[C@@H](NC(=O)[C@@H](NC(=O)[C@H]1CCN1C(C)C)C(C)(C)C)C(C)(C)C)C(C)(C)C21CCC1)C(=O)NS(=O)(=O)C1CC1 [Compound 135, (5R,8S)-N-{(1R,2S)-1-[(cyclopropylsulfonyl)carba-moyl]-2-vinylcyclopropyl}-7-[(2S)-2-{[(2S)-2-({[(2R)-1-isopropylazetidin-2-yl]carbonyl}amino)-3,3-dimethylbutanoyl]amino}-3,3-dimethylbutanoyl]-10,10-dimethyl-7-azadispiro[3.0.4.1]decane-8-carboxamide]	15
C=C[C@@H]1C[C@]1(NC(=O)[C@@H]1C[C@@]2(CN1C(=O)[C@@H](NC(=O)[C@@H](NC(=O)c1c(C)n[nH]c1C)C(C)(C)C)C(C)(C)C)C(C)(C)C21CCC1)C(=O)NS(=O)(=O)C1CC1 [Compound 136, (5R,8S)-N-{(1R,2S)-1-[(cyclopropylsulfonyl)carba-moyl]-2-vinylcyclopropyl}-7-[(2S)-2-{[(2S)-2-{[(3,5-dimethyl-1H-pyrazol-4-yl)carbonyl]amino}-3,3-dimethylbutanoyl]amino}-3,3-dimethylbutanoyl]-10,10-dimethyl-7-azadispiro[3.0.4.1]decane-8-carboxamide]	20
C=C[C@@H]1C[C@]1(NC(=O)[C@@H]1C[C@@]2(CN1C(=O)[C@@H](NC(=O)[C@@H](NC(=O)c1c(C)nn(C)c1C)C(C)(C)C)C(C)(C)C)C(C)(C)C21CCC1)C(=O)NS(=O)(=O)C1CC1 [Compound 137, (5R,8S)-N-{(1R,2S)-1-[(cyclopropylsulfonyl)carba-moyl]-2-vinylcyclopropyl}-7-[(2S)-2-{[(2S)-3,3-dimethyl-2-{[(1,3,5-trimethyl-1H-pyrazol-4-yl)carbonyl]amino}butanoyl]amino}-3,3-dimethylbutanoyl]-10,10-dimethyl-7-azadispiro[3.0.4.1]decane-8-carboxamide]	30
C=C[C@@H]1C[C@]1(NC(=O)[C@@H]1C[C@@]2(CN1C(=O)[C@@H](NC(=O)[C@@H](NC(=O)c1cc(C(C)(C)C)n[nH]1)C(C)(C)C)C(C)(C)C)C(C)(C)C21CCC1)C(=O)NS(=O)(=O)C1CC1 [Compound 138, (5R,8S)-7-[(2S)-2-{[(2S)-2-{[(3-tert-butyl-1H-pyrazol-5-yl)carbonyl]amino}-3,3-dimethylbutanoyl]amino}-3,3-dimethylbutanoyl]-N-{(1R,2S)-1-[(cyclopropylsulfonyl)carba-moyl]-2-vinylcyclopropyl}-10,10-dimethyl-7-azadispiro[3.0.4.1]decane-8-carboxamide]	5.5
C=C[C@@H]1C[C@]1(NC(=O)[C@@H]1C[C@@]2(CN1C(=O)[C@@H](NC(=O)[C@@H](NC(=O)C1CN(C(C)C)C1)C(C)(C)C)C(C)(C)C)C(C)(C)C21CCC1)C(=O)NS(=O)(=O)C1CC1 [Compound 139, (5R,8S)-N-{(1R,2S)-1-[(cyclopropylsulfonyl)carba-moyl]-2-vinylcyclopropyl}-7-[(2S)-2-{[(2S)-2-{[(1-isopropylazetidin-3-yl)carbonyl]amino}-3,3-dimethylbutanoyl]amino}-3,3-dimethylbutanoyl]-10,10-dimethyl-7-azadispiro[3.0.4.1]decane-8-carboxamide]	15
C=C[C@@H]1C[C@]1(NC(=O)[C@@H]1C[C@@]2(CN1C(=O)[C@@H](NC(=O)[C@@H](NC(=O)[C@H]1CCCN1C(C)C)C(C)(C)C)C(C)(C)C)C(C)(C)C21CCC1)C(=O)NS(=O)(=O)C1CC1 [Compound 140, (5R,8S)-N-{(1R,2S)-1-[(cyclopropylsulfonyl)carba-moyl]-2-vinylcyclopropyl}-7-[(2S)-2-{[(2S)-2-({[(2R)-1-isopropylpyrrolidin-2-yl]carbonyl}amino)-3,3-dimethylbutanoyl]amino}-3,3-dimethylbutanoyl]-10,10-dimethyl-7-azadispiro[3.0.4.1]decane-8-carboxamide]	1.5
C=C[C@@H]1C[C@]1(NC(=O)[C@@H]1C[C@@]2(CN1C(=O)[C@@H](NC(=O)[C@@H](NC(=O)[C@@H]1CCCN1C(C)C)C(C)(C)C)C(C)(C)C)C(C)(C)C21CCC1)C(=O)NS(=O)(=O)C1CC1 [Compound 141, (5R,8S)-N-{(1R,2S)-1-[(cyclopropylsulfonyl)carba-moyl]-2-vinylcyclopropyl}-7-[(2S)-2-{[(2S)-2-({[(2S)-1-isopropylpyrrolidin-2-yl]carbonyl}amino)-3,3-dimethylbutanoyl]amino}-3,3-dimethylbutanoyl]-10,10-dimethyl-7-azadispiro[3.0.4.1]decane-8-carboxamide]	2
C=C[C@@H]1C[C@]1(NC(=O)[C@@H]1C[C@@]2(CN1C(=O)[C@@H](NC(=O)[C@@H](NC(=O)[C@H]1CCCCN1C(C)C)C(C)(C)C)C(C)(C)C)C(C)(C)C21CCC1)C(=O)NS(=O)(=O)C1CC1 [Compound 142, (5R,8S)-N-{(1R,2S)-1-[(cyclopropylsulfonyl)carba-moyl]-2-vinylcyclopropyl}-7-[(2S)-2-{[(2S)-2-({[(2R)-1-isopropylpiperidin-2-yl]carbonyl}amino)-3,3-dimethylbutanoyl]amino}-3,3-dimethylbutanoyl]-10,10-dimethyl-7-azadispiro[3.0.4.1]decane-8-carboxamide]	3
